Results from ChEMBL document CHEMBL1201862, “PubChem BioAssay data set” (2004).
Calls of active or inactive are those of the source.

Columns and labels:
[1] = target: T1, Histone-lysine N-methyltransferase NSD2 (Homo sapiens, UniProt O96028); format: biochemical
T1 sequence (O96028 whole entry): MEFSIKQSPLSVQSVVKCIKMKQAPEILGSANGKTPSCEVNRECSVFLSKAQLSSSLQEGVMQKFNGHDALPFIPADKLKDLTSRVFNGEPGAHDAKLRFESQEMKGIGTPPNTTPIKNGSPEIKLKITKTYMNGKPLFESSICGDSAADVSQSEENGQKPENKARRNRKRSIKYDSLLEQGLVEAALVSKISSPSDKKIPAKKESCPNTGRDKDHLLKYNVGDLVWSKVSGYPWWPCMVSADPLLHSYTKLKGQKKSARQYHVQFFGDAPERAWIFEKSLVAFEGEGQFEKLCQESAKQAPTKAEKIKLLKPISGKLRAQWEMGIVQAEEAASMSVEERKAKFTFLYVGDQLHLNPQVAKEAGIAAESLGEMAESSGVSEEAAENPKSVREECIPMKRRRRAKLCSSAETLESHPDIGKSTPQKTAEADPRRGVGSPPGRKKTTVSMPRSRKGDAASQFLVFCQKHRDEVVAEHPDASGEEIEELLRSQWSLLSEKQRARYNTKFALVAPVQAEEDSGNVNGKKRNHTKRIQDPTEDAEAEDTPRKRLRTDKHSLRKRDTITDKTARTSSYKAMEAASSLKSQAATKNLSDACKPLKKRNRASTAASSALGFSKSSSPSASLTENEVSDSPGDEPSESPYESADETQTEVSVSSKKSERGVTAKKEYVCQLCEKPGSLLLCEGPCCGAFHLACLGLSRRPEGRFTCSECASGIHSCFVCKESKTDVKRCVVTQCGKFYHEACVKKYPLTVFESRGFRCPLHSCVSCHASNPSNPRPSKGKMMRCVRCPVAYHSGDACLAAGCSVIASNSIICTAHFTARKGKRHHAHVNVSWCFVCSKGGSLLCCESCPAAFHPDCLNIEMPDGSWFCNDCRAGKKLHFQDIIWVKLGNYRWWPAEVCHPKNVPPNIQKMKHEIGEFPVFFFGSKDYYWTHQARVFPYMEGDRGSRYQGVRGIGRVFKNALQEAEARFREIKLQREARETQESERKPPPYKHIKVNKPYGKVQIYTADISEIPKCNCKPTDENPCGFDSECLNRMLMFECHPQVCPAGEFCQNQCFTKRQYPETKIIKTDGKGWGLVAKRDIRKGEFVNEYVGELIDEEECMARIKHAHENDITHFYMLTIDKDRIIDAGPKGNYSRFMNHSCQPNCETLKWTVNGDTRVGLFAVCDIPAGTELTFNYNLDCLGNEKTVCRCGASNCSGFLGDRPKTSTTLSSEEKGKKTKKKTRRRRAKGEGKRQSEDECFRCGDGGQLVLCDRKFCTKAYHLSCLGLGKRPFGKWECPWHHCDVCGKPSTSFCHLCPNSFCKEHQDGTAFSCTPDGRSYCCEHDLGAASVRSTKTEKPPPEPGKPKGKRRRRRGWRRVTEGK

[2] = target: T2, Sentrin-specific protease 8 (Homo sapiens, UniProt Q96LD8); format: functional
T2 sequence (Q96LD8 whole entry): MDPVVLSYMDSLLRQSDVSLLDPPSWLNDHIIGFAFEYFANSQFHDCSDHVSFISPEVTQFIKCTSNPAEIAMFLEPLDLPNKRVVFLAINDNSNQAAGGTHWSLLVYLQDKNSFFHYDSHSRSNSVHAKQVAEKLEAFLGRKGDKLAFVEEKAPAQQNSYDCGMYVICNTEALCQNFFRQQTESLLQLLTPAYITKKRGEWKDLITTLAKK

[3] = target: T2, Sentrin-specific protease 8; format: functional; remark: listed apart in the source
Caspase-3 = target: T3, Caspase-3 (Homo sapiens, UniProt P42574); format: functional;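 note: Dose-response selectivity test against caspase-3 for candidate inhibitors of sentrin-specific proteases (SENPs)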
T3 sequence (P42574 whole entry): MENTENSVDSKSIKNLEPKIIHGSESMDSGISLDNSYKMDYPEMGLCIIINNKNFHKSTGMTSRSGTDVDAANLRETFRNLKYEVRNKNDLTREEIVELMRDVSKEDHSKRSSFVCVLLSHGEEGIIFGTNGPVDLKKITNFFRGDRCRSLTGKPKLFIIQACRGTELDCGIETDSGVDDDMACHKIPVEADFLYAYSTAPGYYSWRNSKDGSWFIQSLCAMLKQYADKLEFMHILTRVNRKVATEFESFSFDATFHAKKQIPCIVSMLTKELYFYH

[4] = target: T2, Sentrin-specific protease 8; format: functional; remark: listed apart in the source
[5] = target: Tyrosyl-DNA phosphodiesterase 2 (Homo sapiens, UniProt O95551); assay: human TDP2 enzyme inhibitors, dose response, biochemical, epi absorbance, IC50 (AID 743297)
SUMO-activating enzyme = SUMO-activating enzyme (Homo sapiens, UniProt Q9UBT2); assay: inhibitors of in vitro SUMOylation cascade, primary screen, biochemical, HTRF, uHTS (AID 2006); format: protein-complex assay
[6] = target: Photoreceptor-specific nuclear receptor (Homo sapiens, UniProt Q9Y5X4); format: functional;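 note: potency for compounds that break the NR2E3 corepressor complex and count as activators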
[7] = target: Tyrosine-protein kinase Blk (Homo sapiens, UniProt P51451); format: functional;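 note: obtained as one member of a kinome-wide kinase assay panel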
[8] = target: Calcium/calmodulin-dependent protein kinase type II subunit alpha (Homo sapiens, UniProt Q9UQM7); assay: Navigating the Kinome. Panel member name: CAMK2A; format: functional
[9] = target: Leukocyte tyrosine kinase receptor (Homo sapiens, UniProt P29376); assay: Navigating the Kinome. Panel member name: LTK; format: functional
[10] = target: Dual specificity mitogen-activated protein kinase kinase 1 (Homo sapiens, UniProt Q02750); assay: Navigating the Kinome. Panel member name: MAP2K1; format: functional
[11] = target: Tyrosine-protein kinase ABL1 (Homo sapiens, UniProt P00519); format: functional
[12] = target: Mitogen-activated protein kinase 9 (Homo sapiens, UniProt P45984); format: functional;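 note: value from a kinome panel profiling assay, MAPK9 panel entry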
[13] = target: Leucine-rich repeat serine/threonine-protein kinase 2 (Homo sapiens, UniProt Q5S007); format: functional;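 note: value from a broad kinome-wide panel profiling study in which LRRK2 was one of the kinases tested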
[14] = target: Dual specificity mitogen-activated protein kinase kinase 2 (Homo sapiens, UniProt P36507); assay: Navigating the Kinome. Panel member name: MAP2K2; format: functional
[15] = target: Fibroblast growth factor receptor 1 (Homo sapiens, UniProt P11362); format: functional
[16] = target: Platelet-derived growth factor receptor alpha (Homo sapiens, UniProt P16234); assay: Navigating the Kinome. Panel member name: PDGFRA; format: functional
[17] = target: Dual specificity tyrosine-phosphorylation-regulated kinase 3 (Homo sapiens, UniProt O43781); format: functional;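 note: measured as one member of a broad kinase panel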
[18] = target: 3-phosphoinositide-dependent protein kinase 1 (Homo sapiens, UniProt O15530); format: functional;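 note: value comes from the Navigating the Kinome panel, PDPK1 member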

Chain of Tyrosyl-DNA phosphodiesterase 2 (O95551 whole entry): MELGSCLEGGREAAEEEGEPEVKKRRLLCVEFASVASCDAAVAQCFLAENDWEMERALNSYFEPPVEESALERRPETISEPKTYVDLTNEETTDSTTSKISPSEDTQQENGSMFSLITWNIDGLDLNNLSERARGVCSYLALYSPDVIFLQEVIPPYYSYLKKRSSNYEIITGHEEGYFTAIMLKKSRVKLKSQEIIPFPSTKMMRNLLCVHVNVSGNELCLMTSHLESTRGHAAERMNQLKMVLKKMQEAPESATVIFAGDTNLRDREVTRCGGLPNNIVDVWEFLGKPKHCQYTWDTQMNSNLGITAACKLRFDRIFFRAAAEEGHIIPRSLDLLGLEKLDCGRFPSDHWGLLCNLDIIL
Chain of Leucine-rich repeat serine/threonine-protein kinase 2 (Q5S007 whole entry): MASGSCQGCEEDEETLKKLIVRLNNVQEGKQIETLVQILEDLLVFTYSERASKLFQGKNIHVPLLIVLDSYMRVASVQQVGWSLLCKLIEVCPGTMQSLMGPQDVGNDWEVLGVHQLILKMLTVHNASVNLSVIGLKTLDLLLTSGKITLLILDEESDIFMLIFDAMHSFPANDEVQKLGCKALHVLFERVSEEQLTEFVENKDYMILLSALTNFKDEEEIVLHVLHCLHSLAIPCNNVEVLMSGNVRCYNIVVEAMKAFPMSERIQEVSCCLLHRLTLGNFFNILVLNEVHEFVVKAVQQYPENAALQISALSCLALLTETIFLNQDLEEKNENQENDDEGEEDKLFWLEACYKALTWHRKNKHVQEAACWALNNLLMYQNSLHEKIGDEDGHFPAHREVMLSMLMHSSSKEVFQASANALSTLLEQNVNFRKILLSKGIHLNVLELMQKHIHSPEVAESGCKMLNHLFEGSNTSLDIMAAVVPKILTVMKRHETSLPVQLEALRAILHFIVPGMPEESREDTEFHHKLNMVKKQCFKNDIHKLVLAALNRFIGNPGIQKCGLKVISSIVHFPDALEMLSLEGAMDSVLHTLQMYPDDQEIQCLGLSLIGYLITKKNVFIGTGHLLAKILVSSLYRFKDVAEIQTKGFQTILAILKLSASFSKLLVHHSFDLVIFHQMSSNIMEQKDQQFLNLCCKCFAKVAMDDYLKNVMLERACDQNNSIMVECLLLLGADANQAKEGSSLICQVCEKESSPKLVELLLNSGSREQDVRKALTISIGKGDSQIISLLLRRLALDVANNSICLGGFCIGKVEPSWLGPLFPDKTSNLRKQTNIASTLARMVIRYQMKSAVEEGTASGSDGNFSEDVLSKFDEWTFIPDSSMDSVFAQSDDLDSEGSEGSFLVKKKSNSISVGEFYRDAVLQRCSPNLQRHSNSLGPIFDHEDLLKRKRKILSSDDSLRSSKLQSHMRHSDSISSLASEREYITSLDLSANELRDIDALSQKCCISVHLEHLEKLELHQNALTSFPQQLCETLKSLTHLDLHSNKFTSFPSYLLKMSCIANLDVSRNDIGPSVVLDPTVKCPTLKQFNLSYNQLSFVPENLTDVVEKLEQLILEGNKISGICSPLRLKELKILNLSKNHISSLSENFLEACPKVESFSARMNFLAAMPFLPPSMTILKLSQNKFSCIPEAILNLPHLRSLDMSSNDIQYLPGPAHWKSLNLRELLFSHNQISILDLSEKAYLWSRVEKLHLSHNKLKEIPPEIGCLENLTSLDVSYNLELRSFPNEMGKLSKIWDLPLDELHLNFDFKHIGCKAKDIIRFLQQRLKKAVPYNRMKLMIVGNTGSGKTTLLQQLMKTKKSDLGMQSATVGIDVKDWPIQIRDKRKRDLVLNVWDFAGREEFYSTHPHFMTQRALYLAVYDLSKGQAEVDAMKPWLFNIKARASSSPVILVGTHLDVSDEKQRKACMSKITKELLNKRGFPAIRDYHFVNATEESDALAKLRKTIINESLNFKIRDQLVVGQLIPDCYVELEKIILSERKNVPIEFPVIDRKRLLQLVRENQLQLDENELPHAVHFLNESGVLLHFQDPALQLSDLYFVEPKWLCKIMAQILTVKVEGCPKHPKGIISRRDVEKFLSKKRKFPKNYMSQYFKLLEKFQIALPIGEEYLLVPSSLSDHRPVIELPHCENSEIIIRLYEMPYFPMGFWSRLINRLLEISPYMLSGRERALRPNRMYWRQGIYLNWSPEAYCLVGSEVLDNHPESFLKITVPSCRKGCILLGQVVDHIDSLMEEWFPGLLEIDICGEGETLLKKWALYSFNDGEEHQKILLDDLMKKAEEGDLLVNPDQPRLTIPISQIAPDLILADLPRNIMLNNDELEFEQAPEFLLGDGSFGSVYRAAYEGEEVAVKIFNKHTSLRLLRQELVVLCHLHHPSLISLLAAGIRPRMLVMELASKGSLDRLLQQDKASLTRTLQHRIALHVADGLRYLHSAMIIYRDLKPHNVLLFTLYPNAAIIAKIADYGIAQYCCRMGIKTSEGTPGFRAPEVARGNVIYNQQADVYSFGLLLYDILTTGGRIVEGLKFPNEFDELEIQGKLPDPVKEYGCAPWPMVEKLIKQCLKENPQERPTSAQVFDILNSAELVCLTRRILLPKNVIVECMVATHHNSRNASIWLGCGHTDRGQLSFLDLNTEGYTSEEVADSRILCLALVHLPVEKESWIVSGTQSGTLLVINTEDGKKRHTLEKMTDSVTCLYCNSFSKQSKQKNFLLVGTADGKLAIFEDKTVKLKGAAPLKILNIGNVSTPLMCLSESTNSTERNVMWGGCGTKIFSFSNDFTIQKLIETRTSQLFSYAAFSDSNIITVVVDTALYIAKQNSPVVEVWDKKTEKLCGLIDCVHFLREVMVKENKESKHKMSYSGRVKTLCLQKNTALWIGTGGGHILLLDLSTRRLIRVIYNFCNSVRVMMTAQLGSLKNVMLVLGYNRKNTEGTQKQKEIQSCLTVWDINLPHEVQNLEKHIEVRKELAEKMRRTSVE
Chain of Tyrosine-protein kinase ABL1 (P00519 whole entry): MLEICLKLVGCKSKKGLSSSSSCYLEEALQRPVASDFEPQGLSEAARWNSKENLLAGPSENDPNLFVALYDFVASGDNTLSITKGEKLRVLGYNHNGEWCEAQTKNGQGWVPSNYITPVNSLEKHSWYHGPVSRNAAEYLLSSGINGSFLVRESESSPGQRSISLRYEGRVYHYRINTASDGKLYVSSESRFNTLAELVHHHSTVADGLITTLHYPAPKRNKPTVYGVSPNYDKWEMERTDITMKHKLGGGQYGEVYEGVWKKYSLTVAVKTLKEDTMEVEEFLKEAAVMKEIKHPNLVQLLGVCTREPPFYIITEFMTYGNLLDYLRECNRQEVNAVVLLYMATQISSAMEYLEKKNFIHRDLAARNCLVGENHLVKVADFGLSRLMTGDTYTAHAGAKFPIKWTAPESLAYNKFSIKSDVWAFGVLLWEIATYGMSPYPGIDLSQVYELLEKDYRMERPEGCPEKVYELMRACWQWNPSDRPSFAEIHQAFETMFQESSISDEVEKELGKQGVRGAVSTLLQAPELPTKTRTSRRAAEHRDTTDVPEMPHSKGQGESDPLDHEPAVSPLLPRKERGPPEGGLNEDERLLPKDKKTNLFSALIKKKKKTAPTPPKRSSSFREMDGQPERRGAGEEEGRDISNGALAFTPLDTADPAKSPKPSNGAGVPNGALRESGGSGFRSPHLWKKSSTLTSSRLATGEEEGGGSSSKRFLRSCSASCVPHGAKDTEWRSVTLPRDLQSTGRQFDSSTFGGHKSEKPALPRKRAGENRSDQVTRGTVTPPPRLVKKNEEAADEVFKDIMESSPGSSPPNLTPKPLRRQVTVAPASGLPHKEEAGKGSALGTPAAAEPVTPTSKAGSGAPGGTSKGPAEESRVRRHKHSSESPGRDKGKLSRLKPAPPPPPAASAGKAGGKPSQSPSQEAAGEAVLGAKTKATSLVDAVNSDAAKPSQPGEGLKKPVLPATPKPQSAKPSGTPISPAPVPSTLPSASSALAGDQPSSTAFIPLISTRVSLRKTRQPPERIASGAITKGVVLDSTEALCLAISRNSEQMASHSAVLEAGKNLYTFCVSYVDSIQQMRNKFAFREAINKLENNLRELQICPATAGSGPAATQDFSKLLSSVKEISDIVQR
Chain of Dual specificity mitogen-activated protein kinase kinase 2 (P36507 whole entry): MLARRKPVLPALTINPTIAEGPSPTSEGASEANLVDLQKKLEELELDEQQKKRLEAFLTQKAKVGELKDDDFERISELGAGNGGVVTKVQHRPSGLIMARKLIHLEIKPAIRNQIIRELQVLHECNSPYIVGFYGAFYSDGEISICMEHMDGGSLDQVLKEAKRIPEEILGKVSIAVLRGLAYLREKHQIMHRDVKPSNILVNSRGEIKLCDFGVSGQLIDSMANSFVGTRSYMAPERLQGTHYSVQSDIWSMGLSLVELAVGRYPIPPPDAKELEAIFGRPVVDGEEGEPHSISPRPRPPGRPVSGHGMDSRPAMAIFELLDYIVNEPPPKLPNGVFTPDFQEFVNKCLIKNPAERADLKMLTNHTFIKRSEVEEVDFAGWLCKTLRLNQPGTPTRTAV
Chain of Mitogen-activated protein kinase 9 (P45984 whole entry): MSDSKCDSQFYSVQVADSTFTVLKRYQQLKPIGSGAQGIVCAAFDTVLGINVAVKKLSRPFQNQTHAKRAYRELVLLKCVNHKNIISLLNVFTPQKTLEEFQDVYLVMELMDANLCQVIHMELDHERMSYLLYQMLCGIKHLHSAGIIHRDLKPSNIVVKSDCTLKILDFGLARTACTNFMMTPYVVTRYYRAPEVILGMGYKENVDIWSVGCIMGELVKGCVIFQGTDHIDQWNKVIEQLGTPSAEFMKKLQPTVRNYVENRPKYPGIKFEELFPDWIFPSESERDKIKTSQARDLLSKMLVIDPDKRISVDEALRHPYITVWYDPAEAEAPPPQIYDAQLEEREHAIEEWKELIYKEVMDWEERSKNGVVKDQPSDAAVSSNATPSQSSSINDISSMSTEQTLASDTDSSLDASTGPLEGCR

Row | Structure (SMILES) | AC50 [1] | IC50 [2] | IC50 [3] | IC50 (Caspase-3) | IC50 [4] | IC50 [5] | IC50 (SUMO-activating enzyme) | IC50 [6] | Ki [7] | Ki [8] | Ki [9] | Ki [10] | Ki [11] | Ki [12] | Ki [13] | Ki [14] | Ki [15] | Ki [16] | Ki [17] | Ki [18]
1 | Cc1c(NC(=O)C(C)OC(=O)c2ccc([N+](=O)[O-])s2)c(=O)n(-c2ccccc2)n1C (centres undefined) | > 20 µM (inactive) | 1.99 µM (active) | 7.35 µM (active) | 13.6 µM (active) | 6.5 µM (active) | 49.5 µM (inactive) | – | – | – | – | – | – | – | – | – | – | – | – | – | –
2 | COc1cc(Br)c(C(=O)c2nccc3cc(OC)c(OC)cc23)cc1OC | 0.416 µM (active) | 2.29 µM (active) | 0.377 µM (active) | – | – | 3.53 µM (active) | 12.8 µM (active) | > 39.8 µM (not active) | – | – | – | – | – | – | – | – | – | – | – | –
3 | CC(N)C1CCC(C(=O)Nc2ccnc3[nH]ccc23)CC1 (centres undefined) | – | – | – | – | – | – | – | – | > 1.58 µM (inactive) | 3.98 µM (active) | 0.398 µM (active) | > 2.51 µM (inactive) | > 0.631 µM (inactive) | > 3.98 µM (inactive) | 0.02 µM (active) | > 2 µM (inactive) | > 3.98 µM (inactive) | > 2.51 µM (inactive) | > 6.31 µM (inactive) | 0.631 µM (active)
